Reference: US10561716B2, “Prostate cancer vaccine” (Wisconsin Alumni Research Foundation, priority 2006, dated 2020)
“Also recorded” adds a separate entry of the source.

Assays:
peptide-loaded T2 cells = experiment: Cytotoxicity assay (LDH) of peptide-specific patient T-cell cultures against peptide-loaded T2 cells; type: cell-based, human; conditions: for Peptide-specific lysis of T2 cells by peptide-specific T-cells (FIG. 6): patient T-cell lines, three effector-to-target ratios; for Peptide-specific lysis (Number of patients): patients of eleven HLA-A2-expressing prostate cancer patients with peptide-specific T cells after 2-4 in vitro stimulations
Experimental: (§1) Human prostate cancer patients underwent leukapheresis, and PBMCs were isolated using a Ficoll-Paque gradient (Pharmacia, Kirkland, Quebec). Immature dendritic cells (iDCs) were generated by incubating flask-adherent PBMCs with 20 ng/mL granulocyte-macrophage colony stimulating factor and 10 ng/mL interleukin four (IL-4) for six days at 37° C./5% CO2 (cytokines from: Fitzgerald Industries, Concord, Mass.). These iDCs were then treated with 150 ng/mL IL-6, 10 ng/mL IL-1β, 10 ng/mL tumor necrosis factor alpha (TNF-α), and […] prostaglandin E2 (Fitzgerald Industries) to generate mature dendritic cells (mDCs). These mDCs were then pulsed with 20 μg/mL AR LBD-derived peptide, and after being irradiated were co-incubated with CD4+ and CD8+ T-cells negatively isolated from autologous PBMCs (Invitrogen, Carlsbad, Calif.). After incubating for 24 hours, these cultures were then treated with 10 U/mL IL-2 and 30 U/mL IL-7 (Fitzgerald Industries), and incubated for another 6 days. These cultured T-cells were re-stimulated weekly using peptide-pulsed antigen presenting cells (either mDCs or the TK6 lymphoma cell line).
(§2) T-cell cultures that underwent at least two stimulations (or splenocyte cultures that had undergone one stimulation) were collected and incubated for four hours with target cells (either T2 cells pulsed for two hours with a specific or non-specific peptide, the LNCaP prostate cancer cell line, or media alone) at various effector-to-target ratios. After incubation, supernatants were collected and levels of lactate dehydrogenase were measured using the CytoTox 96 Non-Radioactive Assay (Promega). The relative percentage of peptide-specific lysis was quantitated using the following equation: […]
(§3) To characterize CD8+ T-cell responses to the AR LBD, the amino acid sequence of the AR LBD was evaluated for potential HLA-A2-binding epitopes that fit the consensus peptide binding sequence of X-L/M-X-X-X-V-X-X-V/L (SEQ ID NO:8), using the algorithm of Parker and colleagues (Parker K C et al., 1994, J. Immunol. 152:163-175). […] These peptides were synthesized and then characterized for their affinity for HLA-A2 in vitro using T2 binding assays. […] Peptide-specific T-cell lines were then cultured from the peripheral blood of 11 HLA-A2^+ patients with prostate cancer, using each of these peptides, and then tested for their cytolytic activity against both peptide-pulsed HLA-A2-expressing target cells and the HLA-A2^+ LNCaP prostate cancer cell line. Specifically, naive T cells were isolated by magnetic negative selection (Dynal) from the peripheral blood mononuclear cells (PBMCs) of HLA-A2-expressing prostate cancer patients, and cultured in the presence of autologous cytokine-matured irradiated dendritic cells (mDC) that had been loaded with individual peptides. These cultures received interleukin 2 (IL-2) and IL-7 the day after the culture, and were re-stimulated weekly with peptide-pulsed mDCs. Beginning after two weeks of stimulation, the T-cell cultures were tested weekly for their cytolytic activity using peptide-loaded T2 cells as target cells. Peptide-specific T-cells could be cultured from the majority of patients to at least one of these peptides, and peptide-specific T-cell lines could be cultured from the majority (7/11) of HLA-A2-expressing patients against the AR811 peptide in particular (Table 2).
(§4) Table 2. Compiled results of T cell culturing and cytotoxicity assays. Shown in this table are the results obtained from cytotoxicity assays of T cell cultures from eleven HLA-A2-expressing patients with prostate cancer. In the second column is the number of patients for which peptide-specific T cells could be identified following 2-4 in vitro stimulations.

[1] = tested on: HLA-A2+ LNCaP prostate cancer cell line; experiment: Cytotoxicity assay (LDH) of peptide-specific patient T-cell cultures against LNCaP; type: cell-based, human; design: key to Prostate cancer cell lysis: +: positive lysis; −: no lysis; +/−: inconclusive; conditions: for Lysis of the LNCaP cell line by peptide-specific T-cells (FIG. 6): patient T-cell lines, three effector-to-target ratios; for Prostate cancer cell lysis: peptide-specific T cells against HLA-A2+ LNCaP
Experimental: as §1, §2, §3, §4

[2] = tested on: prostate cancer cell lines (LNCaP, MDA-Pca-2B, DU145); experiment: Cytotoxicity of AR811 CD8+ T-cell clone against prostate cancer cell lines, with HLA-A2 blocking antibody; type: cell-based, human; conditions: HLA-A2-negative DU145
Experimental: In addition, lysis was evaluated following pre-treatment of LNCaP with an HLA-A2 blocking monoclonal antibody (starburst). Shown is a cytotoxicity assay of an AR811 CD8+ cell clone. Cells were restimulated for seven days using peptide-pulsed antigen presenting cells, followed on day seven by a rest period of three days before they were analyzed for their cytotoxic activity.
To conduct a mini-cytotoxicity assay of limited-dilution clones, 50 μl (¼) of the cultured clones were incubated for four hours with either T2 cells pulsed with the specific peptide, a non-specific peptide, or media alone. For the subsequent characterization of CTL clone cytotoxicity against prostate cancer cells, cryopreserved CTL clones were thawed, washed 3 times, and restimulated by incubating the clones with peptide-pulsed irradiated TK6 cells for 7 days. These clones were then resuspended in 10 U/mL IL-2, and allowed to incubate for three days at 37° C./5% CO2. They were then analyzed for cytotoxicity (as described above) against four prostate cancer cell lines: LNCaP, DU145, LAPC4, and MDAPCa-2b cell lines. To characterize HLA-A2-restriction of observed cytotoxicity, a HLA-A2 antibody was added to the reaction (Clone BB7.2, BD Biosciences, 1 μg/mL).

[3] = tested on: T2 cells pulsed with the AR811 peptide; experiment: Immunization of HLA-A2/DR1 (HHD-II) mice with peptide, splenocyte CTL assay; type: in vivo; conditions: once 100 μg peptide in CFA, splenocytes after one week
IFNγ and TNFα = experiment: Intracellular cytokine staining of AR811-specific T-cell clone; type: cell-based, human; conditions: clone restimulated with peptide, gated on CD3+/CD8+ cells
Experimental: A clonal T-cell line specific for the AR811 peptide was derived by limited dilution following multiple restimulations in vitro. This line was restimulated for 5 hours in vitro with T2 cells and media only (panel A), an irrelevant peptide (panel B), AR811 peptide (panel C), or PMA/Ionomycin (panel D). IFNγ and TNFα cytokine accumulation were assessed by intracellular flow cytometric analysis (Cytofix/cytoperm kit, BD Pharmingen). Cells were first stained for CD3 and CD8 expression and CD3+/CD8+ cells were analyzed for IFNγ and TNFα expression. Shown are the plots gated on CD3+/CD8+ cells.
After T-cell cultures containing AR LBD peptide-specific T-cells were identified, peptide-specific T-cell clones were isolated using limited-dilution cloning. Briefly, cultured T-cells were diluted to 400 cells/mL, and were diluted at a 1:1 ratio down the rows of a 96-well plate. These T-cells were mixed with 2×10^5 autologous PBMCs, as well as an anti-CD3 antibody (Clone UCHT1, BD Biosciences, 120 ng/mL) and IL-2 (Fitzgerald Industries, 200 U/mL), and were incubated at 37° C./5% CO2 for 12-14 days. Cultures generated from a single cell were identified, and their peptide-specificity was analyzed using a mini-cytotoxicity assay (as above). […] After three additional days, expanded T-cell clones were analyzed for cytotoxicity against peptide-specific or non-specific T2-pulsed cells (as described above). […]

| Sequence | Peptide-specific lysis of T2 cells by peptide-specific T-cells (FIG. 6) (peptide-loaded T2 cells) | Peptide-specific lysis (Number of patients) (peptide-loaded T2 cells) | Lysis of the LNCaP cell line by peptide-specific T-cells (FIG. 6) [1] | Prostate cancer cell lysis [1] | Lysis of prostate cancer cells by AR811 T-cell clone, HLA-A2 restriction (FIG. 8) [2] | Peptide-specific CTL after immunization (FIG. 9) [3] | IFNγ and TNFα secretion of peptide-specific T-cell clone (FIG. 7) (IFNγ and TNFα) |
| --- | --- | --- | --- | --- | --- | --- | --- |
| QLTKLLDSV [AR859] | showed peptide-specific lysis | 2/11 | did not lyse the LNCaP cell line | +/− |  |  |  |
| LGERQLVHVV [AR708] |  | 1/11 |  | − |  |  |  |
| VLEAIEPGV [AR677] |  | 2/11 |  | − |  |  |  |
| FSIIPVDGL [AR814] |  | 3/11 |  | − |  |  |  |
| ALLSSLNEL [AR700] |  | 1/11 |  | − |  |  |  |
| FLCMKALLL [AR805] |  | 3/11 |  | +/− |  |  |  |
| LLLFSIIPV [AR811] | lyse T2 cells in a peptide-specific fashion | 7/11 | could lyse the LNCaP cell line | + | lysed prostate cancer cells in an MHC class I-restricted fashion; also recorded: naturally processed HLA-A2-restricted T-cell epitope | AR811 peptide-specific CTL could be identified after immunization; also recorded: develop peptide-specific CTL | secrete both IFNγ and TNFα in response to peptide stimulation; also recorded: secretes IFNγ and TNFα in response to peptide stimulation |
| RMLYFAPDLV [AR761] |  | 6/11 |  | +/− |  |  |  |
| KLLDSVQPI [AR862] |  | 5/11 |  | − |  |  |  |
| WMGLMVFAM [AR742] |  | 2/11 |  | − |  |  |  |
